For 13 molecules, T/C results are on record in PubChem BioAssay AID220 (DTP/NCI, 2004).

Records with an inconclusive call do not appear.

This assay relates to CD8F1 mice, subcutaneous mammary adenocarcinoma, T/C%. Nature of the assay: NCI In Vivo Anticancer Drug Screen. Data for tumor model Mammary Adenocarcinoma CD8F1 (subcutaneous) in CD8F1. To be noted: higher = larger tumour. Put shortly: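 Antitumor activity is assessed in transplantable-tumor mice by comparing the treated group with a vehicle-treated control group. Survival or tumor size serves as the measure, reported as T divided by C.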

[1] abbreviates: endpoint: median tumor weight (est.), dose: 0.62 mg/kg/injection, schedule: Q07DX005 (ip), vehicle: saline.
[2] abbreviates: endpoint: median tumor weight (est.), dose: 25.0 mg/kg/injection, schedule: Q07DX005 (ip), vehicle: saline with Tween-80.
[3] abbreviates: endpoint: median tumor weight (est.), dose: 50.0 mg/kg/injection, schedule: Q07DX005 (ip), vehicle: saline with Tween-80.
[4] abbreviates: endpoint: median tumor weight change, dose: 62.0 mg/kg/injection, schedule: Q01DX001 (ip), vehicle: water.
[5] abbreviates: endpoint: median tumor weight change, dose: 125.0 mg/kg/injection, schedule: Q01DX001 (ip), vehicle: water.

With `C=C(C)C(=O)OC1C/C(CO)=C\C(O)C/C(C)=C/C2OC(=O)C(=C)C21` (stereo not drawn), the T/C is 86 % of control (endpoint: median tumor weight change, dose: 12.0 mg/kg/injection, schedule: Q01DX001 (ip), vehicle: saline + alcohol); 49 % of control (endpoint: median tumor weight change, dose: 25.0 mg/kg/injection, schedule: Q01DX001 (ip), vehicle: saline + alcohol); 69 % of control (endpoint: median tumor weight change, dose: 50.0 mg/kg/injection, schedule: Q01DX001 (ip), vehicle: saline + alcohol); 60 % of control (endpoint: median tumor weight change, dose: 100.0 mg/kg/injection, schedule: Q01DX001 (ip), vehicle: saline + alcohol).

In the case of `NC(=O)/C=C/C(=O)c1c(Cl)cccc1Cl`, the T/C was 110 % of control (endpoint: median tumor weight change, dose: 1.5 mg/kg/injection, schedule: Q01DX001 (ip), vehicle: saline with Tween-80); 85 % of control (endpoint: median tumor weight change, dose: 3.0 mg/kg/injection, schedule: Q01DX001 (ip), vehicle: saline with Tween-80); 100 % of control (endpoint: median tumor weight change, dose: 6.0 mg/kg/injection, schedule: Q01DX001 (ip), vehicle: saline with Tween-80); 90 % of control (endpoint: median tumor weight change, dose: 12.0 mg/kg/injection, schedule: Q01DX001 (ip), vehicle: saline with Tween-80); 71 % of control (endpoint: median tumor weight change, dose: 12.5 mg/kg/injection, schedule: Q01DX001 (ip), vehicle: saline with Tween-80); 104 % of control (endpoint: median tumor weight change, dose: 50.0 mg/kg/injection, schedule: Q01DX001 (ip), vehicle: saline with Tween-80). Moreover, the T/C (endpoint: median tumor weight change, dose: 100.0 mg/kg/injection, schedule: Q01DX001 (ip), vehicle: saline with Tween-80) was 55 % of control.

With `O=c1ccc2ccccc2o1`, under “endpoint: median tumor weight change, dose: 125.0 mg/kg/injection, schedule: Q01DX001 (ip), vehicle: Klucel (hydroxypropylcellulose) (HPC)”, the T/C was 90 % of control.

Take `COc1cccc2c1C(=O)c1c(O)c3c(c(O)c1C2=O)C[C@@](O)(C(C)=O)C[C@@H]3OC1CC(N)C(O)C(C)O1` (stereo partly drawn): the T/C is 41 % of control (endpoint: median tumor weight (est.), dose: 0.5 mg/kg/injection, schedule: Q07DX005 (ip), vehicle: water); 43 % of control (endpoint: median tumor weight (est.), dose: 1.0 mg/kg/injection, schedule: Q07DX005 (ip), vehicle: water); 91 % of control (endpoint: median tumor weight (est.), dose: 1.2 mg/kg/injection, schedule: Q07DX005 (ip), vehicle: saline); 43 % of control (endpoint: median tumor weight (est.), dose: 1.78 mg/kg/injection, schedule: Q07DX005 (ip), vehicle: water); 72 % of control (endpoint: median tumor weight (est.), dose: 1.8 mg/kg/injection, schedule: Q07DX005 (ip), vehicle: saline); 38 % of control (endpoint: median tumor weight (est.), dose: 2.0 mg/kg/injection, schedule: Q07DX005 (ip), vehicle: water). Moreover, the T/C by setting is: (endpoint: median tumor weight (est.), dose: 2.67 mg/kg/injection, schedule: Q07DX005 (ip), vehicle: water) 20 % of control; (endpoint: median tumor weight (est.), dose: 2.7 mg/kg/injection, schedule: Q07DX005 (ip), vehicle: saline) 61 % of control.

For the molecule `C/C=C(\C)c1cc(=O)c2c(C)cc3c(c2o1)C(=O)c1c(O)c(C2CC(C)(N(C)C)C(OC(C)=O)C(C)O2)cc(C2CC(N(C)C)C(O)C(C)O2)c1C3=O` (stereo not drawn), the T/C (endpoint: median tumor weight (est.), dose: 0.15 mg/kg/injection, schedule: Q07DX005 (ip), vehicle: saline) is 157 % of control; the T/C (endpoint: median tumor weight (est.), dose: 0.31 mg/kg/injection, schedule: Q07DX005 (ip), vehicle: saline) was 100 % of control; the T/C under setting [1] is 116 % of control; the T/C (endpoint: median tumor weight change, dose: 1.56 mg/kg/injection, schedule: Q01DX001 (ip), vehicle: suspension in saline) was 164 % of control; the T/C (endpoint: median tumor weight change, dose: 3.12 mg/kg/injection, schedule: Q01DX001 (ip), vehicle: suspension in saline) is 153 % of control; the T/C (endpoint: median tumor weight change, dose: 6.25 mg/kg/injection, schedule: Q01DX001 (ip), vehicle: suspension in saline) was 116 % of control. Further, the T/C is 82 % of control (endpoint: median tumor weight change, dose: 12.5 mg/kg/injection, schedule: Q01DX001 (ip), vehicle: suspension in saline) and 64 % of control (endpoint: median tumor weight change, dose: 25.0 mg/kg/injection, schedule: Q01DX001 (ip), vehicle: suspension in saline).

Regarding `CC[C@H]1CN2CCc3cc(OC)c(OC)cc3[C@@H]2C[C@@H]1C[C@H]1NCCc2cc(OC)c(OC)cc21`, the T/C runs as follows: (endpoint: mean tumor weight, dose: 0.88 mg/kg/injection, schedule: Q07DX006 (ip), vehicle: saline) 46 % of control; (endpoint: mean tumor weight, dose: 1.75 mg/kg/injection, schedule: Q07DX005 (ip), vehicle: saline) 163 % of control; (endpoint: mean tumor weight, dose: 1.75 mg/kg/injection, schedule: Q07DX006 (ip), vehicle: saline) 65 % of control; (endpoint: mean tumor weight, dose: 3.5 mg/kg/injection, schedule: Q07DX005 (ip), vehicle: saline) 258 % of control; (endpoint: mean tumor weight, dose: 3.5 mg/kg/injection, schedule: Q07DX006 (ip), vehicle: saline) 42 % of control; (endpoint: mean tumor weight, dose: 7.0 mg/kg/injection, schedule: Q07DX005 (ip), vehicle: saline) 153 % of control. The T/C is, setting by setting: (endpoint: mean tumor weight, dose: 7.0 mg/kg/injection, schedule: Q07DX006 (ip), vehicle: saline) 73 % of control; (endpoint: mean tumor weight, dose: 14.0 mg/kg/injection, schedule: Q07DX005 (ip), vehicle: saline) 156 % of control; (endpoint: mean tumor weight, dose: 14.0 mg/kg/injection, schedule: Q07DX006 (ip), vehicle: saline) 96 % of control; (endpoint: median tumor weight (est.), dose: 1.75 mg/kg/injection, schedule: Q07DX005 (ip), vehicle: saline) 214 % of control; (endpoint: median tumor weight (est.), dose: 3.5 mg/kg/injection, schedule: Q07DX005 (ip), vehicle: saline) 166 % of control; (endpoint: median tumor weight (est.), dose: 7.0 mg/kg/injection, schedule: Q07DX005 (ip), vehicle: saline) 92 % of control. Further, the T/C (endpoint: median tumor weight (est.), dose: 28.0 mg/kg/injection, schedule: Q07DX005 (ip), vehicle: saline) was 86 % of control.

For the molecule `CC(=O)C(O)N1C(=O)C=CC1=O` (stereo not drawn), the T/C is, setting by setting: under setting [1], 78 % of control; (endpoint: median tumor weight (est.), dose: 1.25 mg/kg/injection, schedule: Q07DX005 (ip), vehicle: saline) 74 % of control; (endpoint: median tumor weight (est.), dose: 2.5 mg/kg/injection, schedule: Q07DX005 (ip), vehicle: saline) 77 % of control; (endpoint: median tumor weight (est.), dose: 5.0 mg/kg/injection, schedule: Q07DX005 (ip), vehicle: saline) 50 % of control.

On to `Oc1c(Cl)cc(C(c2cc(Cl)c(O)c(Cl)c2)C(c2cc(Cl)c(O)c(Cl)c2)c2cc(Cl)c(O)c(Cl)c2)cc1Cl`, for which the T/C runs as follows: (endpoint: median tumor weight (est.), dose: 12.5 mg/kg/injection, schedule: Q07DX005 (ip), vehicle: Klucel (hydroxypropylcellulose) (HPC)) 540 % of control; (endpoint: median tumor weight (est.), dose: 25.0 mg/kg/injection, schedule: Q07DX005 (ip), vehicle: Klucel (hydroxypropylcellulose) (HPC)) 341 % of control; (endpoint: median tumor weight (est.), dose: 50.0 mg/kg/injection, schedule: Q07DX005 (ip), vehicle: Klucel (hydroxypropylcellulose) (HPC)) 294 % of control; (endpoint: median tumor weight (est.), dose: 100.0 mg/kg/injection, schedule: Q07DX005 (ip), vehicle: Klucel (hydroxypropylcellulose) (HPC)) 84 % of control; (endpoint: median tumor weight (est.), dose: 200.0 mg/kg/injection, schedule: Q07DX005 (ip), vehicle: Klucel (hydroxypropylcellulose) (HPC)) 192 % of control.

For the molecule `S=C=NCCc1ccccc1`, the T/C by setting is: under setting [2], 120 % of control; under setting [3], 111 % of control; (endpoint: median tumor weight (est.), dose: 100.0 mg/kg/injection, schedule: Q07DX005 (ip), vehicle: saline with Tween-80) 53 % of control.

`C1CC[N-]CC1.[Cl][Pt+2][Cl].[NH-]C1CC1`: the T/C is, setting by setting: (endpoint: median tumor weight change, dose: 31.0 mg/kg/injection, schedule: Q01DX001 (ip), vehicle: water) 116 % of control; under setting [4], 121 % of control; (endpoint: median tumor weight change, dose: 62.5 mg/kg/injection, schedule: Q01DX001 (ip), vehicle: distilled water + Tween-80) 26 % of control; under setting [5], 21 % of control.

For the molecule `COc1cccc2c1C(=O)c1c(O)c3c(c(O)c1C2=O)C[C@@](O)(C(O)CO)C[C@@H]3OC1CC(N(Cc2ccccc2)Cc2ccccc2)C(O)C(C)O1` (stereo partly drawn), the T/C by setting is: under setting [4], 14 % of control; under setting [5], -48 % of control.

Regarding `O=S1(=O)C=C(c2ccccc2)C(c2ccccc2)=C1`, the T/C is, setting by setting: (endpoint: median tumor weight (est.), dose: 6.25 mg/kg/injection, schedule: Q07DX005 (ip), vehicle: saline with Tween-80) 80 % of control; under setting [2], 72 % of control; under setting [3], 108 % of control.

In the case of `N/C=N/O`, the T/C was 109 % of control (endpoint: median tumor weight (est.), dose: 25.0 mg/kg/injection, schedule: Q07DX005 (ip), vehicle: saline); 181 % of control (endpoint: median tumor weight (est.), dose: 50.0 mg/kg/injection, schedule: Q07DX005 (ip), vehicle: saline); 164 % of control (endpoint: median tumor weight (est.), dose: 100.0 mg/kg/injection, schedule: Q07DX005 (ip), vehicle: saline); 105 % of control (endpoint: median tumor weight (est.), dose: 200.0 mg/kg/injection, schedule: Q07DX005 (ip), vehicle: saline); 97 % of control (endpoint: median tumor weight (est.), dose: 400.0 mg/kg/injection, schedule: Q07DX005 (ip), vehicle: saline); 78 % of control (endpoint: median tumor weight (est.), dose: 600.0 mg/kg/injection, schedule: Q07DX005 (ip), vehicle: saline).
